Test results: ChEMBL document CHEMBL5137009, “On the Utility of Chemical Strategies to Improve Peptide Gut Stability” (J Med Chem, 2022)
*1 amine or outer side, *2 acyl side, *3 side chain or, on linkers, in order; H or OH if unused. Where a SMILES comes first, the peptide text is derived from it. Bridges are numbered along the chain shown (N, C = ends). X1 = O=C(CCC[*:2])[*:1]

Assays:
[1] = Stability of the compound in simulated intestinal fluid at pH 6.8 assessed as half life measured up to 24 hrs by RP-HPLC-UV analysis; format: ADME
[2] = Stability of the compound in simulated gastric fluid at pH 1.2 assessed as half life measured up to 24 hrs by RP-HPLC-UV analysis; format: ADME

Compound	half-life [1] [h]	half-life [2] [h]
CC(C)C[C@@H]1NC(=O)CNC(=O)[C@H](CC(N)=O)NC(=O)[C@H](CCCNC(=N)N)NC(=O)[C@H]([C@@H](C)O)NC(=O)[C@@H]2CSSC[C@@H]3NC(=O)[C@H]([C@@H](C)O)NC(=O)CNC(=O)CNC(=O)[C@H](C(C)C)NC(=O)[C@@H]4CSSC[C@H](NC(=O)[C@H]([C@@H](C)O)NC(=O)[C@H](CSSC[C@H](NC(=O)[C@H](C(C)C)NC(=O)[C@@H]5CCCN5C1=O)C(=O)NCC(=O)N[C@@H](CCC(=O)O)C(=O)N[C@@H]([C@@H](C)O)C(=O)N4)NC(=O)CNC(=O)[C@@H]1CCCN1C(=O)[C@H]([C@@H](C)O)NC(=O)[C@H](CC(N)=O)NC3=O)C(=O)N[C@@H](CO)C(=O)N[C@@H](Cc1c[nH]c3ccccc13)C(=O)N1CCC[C@H]1C(=O)N[C@@H](C(C)C)C(=O)N2	> 24	> 24
CC[C@H](C)[C@@H]1NC(=O)[C@H](Cc2ccc(O)cc2)NC(=O)[C@@H]2CSSC[C@@H]3NC(=O)[C@H](C(C)C)NC(=O)[C@@H]4CCCN4C(=O)[C@H](Cc4c[nH]c5ccccc45)NC(=O)[C@H](CO)NC(=O)[C@@H]4CSSC[C@H](NC(=O)[C@H]([C@@H](C)O)NC(=O)[C@H](CCC(=O)O)NC(=O)CNC(=O)[C@H](CSSC[C@H](NC(=O)[C@H](CC(N)=O)NC(=O)[C@H](CCC(N)=O)NC1=O)C(=O)N[C@@H]([C@@H](C)O)C(=O)N4)NC(=O)[C@H](C(C)C)NC(=O)[C@@H]1CCCN1C(=O)[C@H](CC(C)C)NC(=O)CNC(=O)[C@H](CC(N)=O)NC(=O)[C@H](CCCNC(=N)N)NC(=O)[C@H]([C@@H](C)O)NC3=O)C(=O)N[C@@H](C(C)C)C(=O)NCC(=O)NCC(=O)N[C@@H]([C@@H](C)O)C(=O)N2	> 24	–
CC[C@H](C)[C@@H]1NC(=O)[C@H](Cc2ccc(O)cc2)NC(=O)[C@@H]2CSSC[C@@H]3NC(=O)[C@H]([C@@H](C)CC)NC(=O)[C@@H]4CCCN4C(=O)[C@H](Cc4c[nH]c5ccccc45)NC(=O)[C@H](CO)NC(=O)[C@@H]4CSSC[C@H](NC(=O)[C@H]([C@@H](C)O)NC(=O)[C@H](CCC(=O)O)NC(=O)CNC(=O)[C@H](CSSC[C@H](NC(=O)[C@H](CC(N)=O)NC(=O)[C@H]([C@@H](C)O)NC1=O)C(=O)N[C@@H]([C@@H](C)O)C(=O)N4)NC(=O)[C@H](C(C)C)NC(=O)[C@@H]1CCCN1C(=O)[C@H](CC(C)C)NC(=O)CNC(=O)[C@H](CC(N)=O)NC(=O)[C@H](CCCNC(=N)N)NC(=O)[C@H](CCCCN)NC3=O)C(=O)N[C@@H]([C@@H](C)O)C(=O)N[C@@H](CC(C)C)C(=O)NCC(=O)N[C@@H]([C@@H](C)O)C(=O)N2	> 24	–
CC[C@H](C)[C@@H]1NC(=O)[C@H](Cc2ccc(O)cc2)NC(=O)[C@@H]2CSSC[C@@H]3NC(=O)[C@H](C(C)C)NC(=O)[C@@H]4CCCN4C(=O)[C@H](Cc4c[nH]c5ccccc45)NC(=O)[C@H](CO)NC(=O)[C@@H]4CSSC[C@H](NC(=O)[C@H]([C@@H](C)O)NC(=O)[C@H](CCC(=O)O)NC(=O)CNC(=O)[C@H](CSSC[C@H](NC(=O)[C@H](CC(N)=O)NC(=O)[C@H]([C@@H](C)O)NC1=O)C(=O)N[C@@H]([C@@H](C)O)C(=O)N4)NC(=O)[C@H](C(C)C)NC(=O)[C@@H]1CCCN1C(=O)[C@H](CC(C)C)NC(=O)CNC(=O)[C@H](CC(N)=O)NC(=O)[C@H](CCCNC(=N)N)NC(=O)[C@H]([C@@H](C)O)NC3=O)C(=O)N[C@@H](C(C)C)C(=O)NCC(=O)NCC(=O)N[C@@H]([C@@H](C)O)C(=O)N2	> 24	–
CC[C@H](C)[C@@H]1NC(=O)[C@@H]2CCCN2C(=O)[C@H](Cc2c[nH]c3ccccc23)NC(=O)[C@H](CO)NC(=O)[C@@H]2CSSC[C@@H]3NC(=O)[C@H]([C@@H](C)O)NC(=O)[C@H](CCC(=O)O)NC(=O)CNC(=O)[C@@H]4CSSC[C@H](NC(=O)CNC(=O)[C@H](CCC(N)=O)NC(=O)[C@H]([C@@H](C)O)NC(=O)[C@H](Cc5ccc(O)cc5)NC(=O)[C@H](CSSC[C@H](NC1=O)C(=O)N[C@@H](CCCCN)C(=O)N[C@@H](CCCNC(=N)N)C(=O)N[C@@H](CC(N)=O)C(=O)NCC(=O)N[C@@H](CC(C)C)C(=O)N1CCC[C@H]1C(=O)N[C@@H](C(C)C)C(=O)N4)NC(=O)[C@H]([C@@H](C)O)NC(=O)CNC(=O)[C@H](CC(C)C)NC(=O)[C@H]([C@@H](C)O)NC3=O)C(=O)N[C@@H]([C@@H](C)O)C(=O)N2	> 24	> 24
CC[C@@H](C)[C@H]1NC(=O)[C@@H](Cc2ccc(O)cc2)NC(=O)[C@H](N)CSSC[C@H](C(=O)N2CCC[C@@H]2C(=O)N[C@H](CC(C)C)C(=O)NCC(N)=O)NC(=O)[C@@H](CC(N)=O)NC(=O)[C@@H](CCC(N)=O)NC1=O	> 24	–
CC[C@H](C)[C@@H]1NC(=O)[C@@H]2CSSC[C@H](NC(=O)[C@H](CCCNC(=N)N)NC(=O)[C@@H]3CSSC[C@H](NC1=O)C(=O)N[C@@H]([C@@H](C)O)C(=O)N[C@@H](CCCNC(=N)N)C(=O)NCC(=O)N[C@@H](Cc1ccccc1)C(=O)N3)C(=O)N[C@@H](CC(C)C)C(=O)N[C@H]1CSSC[C@H](NC(=O)[C@H](C(C)C)NC(=O)CNC(=O)[C@H](CCCNC(=N)N)NC(=O)[C@H](CCCNC(=N)N)NC1=O)C(=O)N[C@@H](CCCNC(=N)N)C(=O)N2 (HELM PEPTIDE1{G.F.C.R.C.L.C.R.R.G.V.C.R.C.I.C.T.R}$PEPTIDE1,PEPTIDE1,3:R3-16:R3|PEPTIDE1,PEPTIDE1,5:R3-14:R3|PEPTIDE1,PEPTIDE1,7:R3-12:R3|PEPTIDE1,PEPTIDE1,1:R1-18:R2$$$V2.0)	–	2.2
C[C@@H]1NC(=O)[C@@H]2CCCN2C(=O)[C@H](CC(N)=O)NC(=O)[C@@H]2CSSC[C@H](N)C(=O)N[C@H]3CSSC[C@H](NC1=O)C(=O)N[C@@H]([C@@H](C)O)C(=O)NCC(=O)N[C@H](C(=O)N[C@@H](Cc1ccc(O)cc1)C(=O)O)CSSC[C@H](NC(=O)[C@H](Cc1ccc(O)cc1)NC(=O)[C@H](CCC(=O)O)NC3=O)C(=O)N2 [LINACLOTIDE] (HELM PEPTIDE1{C.C.E.Y.C.C.N.P.A.C.T.G.C.Y}$PEPTIDE1,PEPTIDE1,1:R3-6:R3|PEPTIDE1,PEPTIDE1,2:R3-10:R3|PEPTIDE1,PEPTIDE1,5:R3-13:R3$$$V2.0)	–	> 24
C[C@@H](O)[C@@H]1NC(=O)[C@H](CCCCN)NC(=O)[C@@H](Cc2c[nH]c3ccccc23)NC(=O)[C@H](Cc2ccccc2)NC(=O)[C@@H](NC(=O)[C@H](N)Cc2ccccc2)CSSC[C@@H](C(=O)N[C@H](CO)[C@@H](C)O)NC1=O [OCTREOTIDE]	–	> 24
CC[C@H](C)[C@@H]1NC(=O)[C@H](Cc2ccc(O)cc2)NC(=O)[C@@H](N)CSSC[C@@H](C(=O)N2CCC[C@H]2C(=O)N[C@@H](CC(C)C)C(=O)NCC(N)=O)NC(=O)[C@H](CC(N)=O)NC(=O)[C@H](CCC(N)=O)NC1=O [OXYTOCIN]	–	> 24
NC(=O)CC[C@@H]1NC(=O)[C@H](Cc2ccccc2)NC(=O)[C@H](Cc2ccc(O)cc2)NC(=O)[C@@H](N)CSSC[C@@H](C(=O)N2CCC[C@H]2C(=O)N[C@@H](CCCN=C(N)N)C(=O)NCC(N)=O)NC(=O)[C@H](CC(N)=O)NC1=O [VASOPRESSIN]	–	> 24

The remaining lines, values ahead:

half-life [1] [h]	half-life [2] [h]	Compound
2.9	–	CC[C@H](C)[C@@H]1NC(=O)[C@H](Cc2ccc(O)cc2)NC(=O)[C@@H](N)CSSC[C@@H](C(=O)N2CCC[C@H]2C(=O)N[C@@H](CC(C)C)C(=O)N(C)CC(N)=O)NC(=O)[C@H](CC(N)=O)NC(=O)[C@H](CCC(N)=O)NC1=O
4.4	–	CC[C@H](C)[C@@H]1NC(=O)[C@H](Cc2ccc(O)cc2)NC(=O)[C@@H](N)CSSC[C@@H](C(=O)N2CCC[C@H]2C(=O)N[C@@](C)(CC(C)C)C(=O)NCC(N)=O)NC(=O)[C@H](CC(N)=O)NC(=O)[C@H](CCC(N)=O)NC1=O
3.6	–	CC[C@H](C)[C@@H]1NC(=O)[C@H](Cc2ccc(O)cc2)NC(=O)[C@@H](N)CSSC[C@@H](C(=O)N2CCC[C@H]2C(=O)N[C@H](CC(=O)NCC(N)=O)CC(C)C)NC(=O)[C@H](CC(N)=O)NC(=O)[C@H](CCC(N)=O)NC1=O
0.117	–	CC[C@H](C)[C@@H]1NC(=O)[C@H](Cc2ccc(O)cc2)NC(=O)[C@@H]2CSSC[C@H](NC(=O)[C@H](CC(N)=O)NC(=O)[C@H](CCC(N)=O)NC1=O)C(=O)N1CCC[C@H]1C(=O)N[C@@H](CC(C)C)C(=O)NCC(=O)N2
< 0.05	–	[H][C@@]12CCCN1C(=O)[C@@H]1CSSC[C@H](NC(=O)CNC(=O)[C@H](C)NC(=O)CNC(=O)[C@H](C)NC(=O)CNC(=O)[C@H](C)NC(=O)CNC(=O)[C@H](CC(C)C)NC2=O)C(=O)N[C@@H](Cc2ccc(O)cc2)C(=O)N[C@@H]([C@@H](C)CC)C(=O)N[C@@H](CCC(N)=O)C(=O)N[C@@H](CC(N)=O)C(=O)N1 (HELM PEPTIDE1{A.G.A.G.A.G.C.Y.I.Q.N.C.P.L.G}$PEPTIDE1,PEPTIDE1,7:R3-12:R3|PEPTIDE1,PEPTIDE1,1:R1-15:R2$$$V2.0)
0.05	–	CC[C@H](C)[C@@H]1NC(=O)[C@@H]2CCCN2C(=O)[C@@H]2CCCN2C(=O)[C@H]([C@@H](C)CC)NC(=O)[C@H](CO)NC(=O)[C@H](CCCCN)NC(=O)[C@H]([C@@H](C)O)NC(=O)[C@@H]2CSSC[C@H](NC1=O)C(=O)N[C@@H](Cc1ccc(OC)cc1)C(=O)N[C@@H](Cc1ccccc1)C(=O)N[C@@H](CCC(N)=O)C(=O)N[C@@H](CC(N)=O)C(=O)N[C@@H](CCCNC(=N)N)C(=O)N1CCC[C@H]1C(=O)N[C@@H](CCCNC(=N)N)C(=O)N2 (cyclo(CTKSIPPICY(Me)FQNRPR); disulfide 1-9)
–	> 24	CC[C@H](C)[C@@H]1NC(=O)[C@H](Cc2ccc(OC)cc2)NC(=O)CCCSC[C@@H](C(=O)N2CCC[C@H]2C(=O)N[C@@H](CC(C)C)C(=O)NCC(N)=O)NC(=O)[C@H](CC(N)=O)NC(=O)[C@H](CCC(N)=O)NC1=O [CARBETOCIN] (Y(Me)IQNCPLG-NH2; linker N-5 via X1)
–	> 24	CC(C)C[C@H](NC(=O)[C@@H]1CSSC[C@@H]2NC(=O)[C@H](CC(C)C)NC(=O)[C@H](CCC(=O)O)NC(=O)[C@@H](NC(=O)[C@H](CCC(=O)O)NC(=O)[C@H](CC(=O)O)NC(=O)[C@@H](N)CC(N)=O)CSSC[C@H](NC(=O)[C@H](C)NC(=O)[C@H](C(C)C)NC(=O)[C@H](CC(N)=O)NC(=O)[C@H](C(C)C)NC2=O)C(=O)N[C@@H]([C@@H](C)O)C(=O)NCC(=O)N1)C(=O)O [PLECANATIDE]
